Tests used:
Assay type in all cases: in vivo
Setaria faberi (SETFA) [1] = experiment: Test 1A glasshouse assay for herbicidal activity, post-emergence; conditions: 312 h, evaluated after 13 days, read-out: percentage phytotoxicity SETFA
Outline: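 Glasshouse spray test with visual phytotoxicity scoring (0–100%) after 13 days. Application timing: 1 day after sowing or after 8 days' cultivation, in 0.5% Tween 20 acetone/water.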

[2] = system: Beta vulgaris (BEAVA, sugar beet); experiment: Test 1B glasshouse assay for herbicidal activity, pre-emergence; conditions: 480 h, 20 DAA, read-out: percentage phytotoxicity BEAVA
Protocol: (§1) Seeds of a variety of monocotyledonous and dicotyledonous test plants are sown in standard soil in pots. The plants are cultivated for one day (for pre-emergence) or for about 12 days (range=10-13 days) (for post-emergence) under controlled conditions in a glasshouse (warm climate species at 24/18° C., cool climate species at 20/16° C., both at day/night; 16 hours light; 65% humidity).
(§2) An “instant formulation”, known as the “IF50”, containing 50 g/liter (i.e. 5% w/v) of the “technical” (i.e. unformulated) active ingredient is prepared by dissolving the active ingredient in a mixture of organic solvents and emulsifier, details of which are provided in the Table below. This IF50 is then mixed with a small, variable amount of acetone to aid dissolution, before addition of a 0.2% v/v aqueous solution of the adjuvant X-77 (which is a mixture of alkyl aryl polyoxyethylene glycols and free fatty acids in isopropanol, CAS Registry number 11097-66-8), as the aqueous diluent, to form an aqueous spray solution which contains a predetermined concentration of the active ingredient (which varies depending on the application rate of the active ingredient to the plants) and 0.2% v/v of the adjuvant X-77. This aqueous spray solution is then sprayed onto the plants, after one day's cultivation (for pre-emergence) or after about 12 days' cultivation (for post-emergence).
(§3) The test plants are then grown on, in a glasshouse (greenhouse) under controlled conditions (at either 24/18° C. or 20/16° C. (day/night) as mentioned above; 16 hours light; 65% humidity) and are watered twice daily. Either 15 days after application of the herbicide (15 DAA) (for post-emergence), or 20 days after application of the herbicide (20 DAA) (for pre-emergence), the test plants are evaluated visually, and an assessed percentage phytotoxicity score is given for each herbicidal application on each plant species (where 100%=total damage to plant; 0%=no damage to plant).
(§4) Cool climate crop plants: Triticum aestivum (TRZAW, winter wheat), Brassica napus (BRSNN, rape, also called oilseed rape or rapeseed), Beta vulgaris (BEAVA, sugar beet).

[3] = system: Brassica napus (BRSNN, rape); experiment: as above; conditions: 480 h, 20 DAA, read-out: percentage phytotoxicity BRSNN
Protocol: as §1, §2, §3, §4

[4] = system: Triticum aestivum (TRZAW, winter wheat); experiment: as above; conditions: 480 h, 20 DAA, read-out: percentage phytotoxicity TRZAW
Protocol: as §1, §2, §3, §4

[5] = system: Glycine max (GLXMA, soybean); experiment: as above; conditions: 480 h, 20 DAA, read-out: percentage phytotoxicity GLXMA
Protocol: as §1, §2, §3
(§5) Warm climate crop plants: Glycine max (GLXMA, soybean).

[6] = system: Beta vulgaris (BEAVA, sugar beet); experiment: Test 1B glasshouse assay for herbicidal activity, post-emergence; conditions: 360 h; for plant injury at 30 g/ha: 30 g/ha application rate; for plant injury at 125 g/ha: 125 g/ha application rate
Protocol: as §1, §2, §3, §4

[7] = system: Brassica napus (BRSNN, rape); experiment: as above; conditions: 360 h; for plant injury at 30 g/ha: 30 g/ha application rate; for plant injury at 125 g/ha: 125 g/ha application rate
Protocol: as §1, §2, §3, §4

[8] = system: Triticum aestivum (TRZAW, winter wheat); experiment: as above; conditions: 360 h; for plant injury at 30 g/ha: 30 g/ha application rate; for plant injury at 125 g/ha: 125 g/ha application rate
Protocol: as §1, §2, §3, §4

[9] = system: Glycine max (GLXMA, soybean); experiment: as above; conditions: 360 h; for plant injury at 30 g/ha: 30 g/ha application rate; for plant injury at 125 g/ha: 125 g/ha application rate
Protocol: as §1, §2, §3, §5

[10] = system: Alopecurus myosuroides (ALOMY); experiment: as above; conditions: 360 h; for pest or weed control at 30 g/ha: 30 g/ha application rate; for pest or weed control at 125 g/ha: 125 g/ha application rate
Protocol: as §1, §2, §3
(§6) Cool climate (“cool season”) grassy monocotyledonous weeds: Alopecurus myosuroides (ALOMY), Avena fatua (AVEFA), Lolium perenne (LOLPE).

Avena fatua (AVEFA) = experiment: as above; conditions: 360 h; for pest or weed control at 30 g/ha: 30 g/ha application rate; for pest or weed control at 125 g/ha: 125 g/ha application rate
Protocol: as §1, §2, §3, §6

Lolium perenne (LOLPE) = experiment: as above; conditions: 360 h; for pest or weed control at 30 g/ha: 30 g/ha application rate; for pest or weed control at 125 g/ha: 125 g/ha application rate
Protocol: as §1, §2, §3, §6

[11] = system: Digitaria sanguinalis (DIGSA); experiment: as above; conditions: 360 h; for pest or weed control at 30 g/ha: 30 g/ha application rate; for pest or weed control at 125 g/ha: 125 g/ha application rate
Protocol: as §1, §2, §3
(§7) Warm climate (“warm season”) grassy monocotyledonous weeds: Setaria faberi (SETFA), SORVU (Sorghum bicolor (L.) Moench ssp. Bicolor, or Sorghum vulgare Pers.), Digitaria sanguinalis (DIGSA), Echinochloa crus-galli (ECHCG), and Brachiaria plantaginea (BRAPL).

[12] = system: SORVU (Sorghum bicolor (L.) Moench ssp. Bicolor, or Sorghum vulgare Pers.); experiment: as above; conditions: 360 h; for pest or weed control at 30 g/ha: 30 g/ha application rate; for pest or weed control at 125 g/ha: 125 g/ha application rate
Protocol: as §1, §2, §3, §7

Setaria faberi (SETFA) [13] = experiment: as above; conditions: 360 h; for pest or weed control at 30 g/ha: 30 g/ha application rate; for pest or weed control at 125 g/ha: 125 g/ha application rate
Protocol: as §1, §2, §3, §7

[14] = system: Echinochloa crus-galli (ECHCG); experiment: as above; conditions: Echinochloa crus-galli; for pest or weed control at 30 g/ha: 30 g/ha application rate; for pest or weed control at 125 g/ha: 125 g/ha application rate
Protocol: as §1, §2, §3, §7
Note: The herbicidal activity data (e.g. post-emergence) shown above in Biological Example 1B for Comparator compounds X-9 and X-10 is thought likely to have been measured some years ago, probably using a variant of the above-described test method. Also, for the post-emergence activity of X-9 and X-10 it is not currently known exactly how many days after application of the herbicide the phytotoxicity on the plants was measured.

| Structure (SMILES) | pest or weed control at 30 g/ha (Setaria faberi (SETFA) [1]) [%] | pest or weed control at 250 g/ha (Setaria faberi (SETFA) [1]) [%] | plant injury at 30 g/ha [6] [%] | plant injury at 125 g/ha [6] [%] | plant injury at 30 g/ha [7] [%] | plant injury at 125 g/ha [7] [%] | plant injury at 30 g/ha [8] [%] | plant injury at 125 g/ha [8] [%] | plant injury at 30 g/ha [9] [%] | plant injury at 125 g/ha [9] [%] | pest or weed control at 30 g/ha [10] [%] | pest or weed control at 125 g/ha [10] [%] | pest or weed control at 30 g/ha (Avena fatua (AVEFA)) [%] | pest or weed control at 125 g/ha (Avena fatua (AVEFA)) [%] | pest or weed control at 30 g/ha (Lolium perenne (LOLPE)) [%] | pest or weed control at 125 g/ha (Lolium perenne (LOLPE)) [%] | pest or weed control at 30 g/ha [11] [%] | pest or weed control at 125 g/ha [11] [%] | pest or weed control at 30 g/ha [12] [%] | pest or weed control at 125 g/ha [12] [%] | other results |
| --- | --- | --- | --- | --- | --- | --- | --- | --- | --- | --- | --- | --- | --- | --- | --- | --- | --- | --- | --- | --- | --- |
| CC#Cc1cc(C)c(C2=C(OC(C)=O)CC(c3ccccn3)CC2=O)c(C)c1 (centres unmarked) [Compound A-15] | 100 | 100 | 30 | 30 | 60 | 70 | 70 | 80 | 20 | 60 | 70 | 80 | 60 | 80 | 80 | 90 | 90 | 100 | 80 | 100 | plant injury at 125 g/ha ([2]; 125 g/ha): 0%; plant injury at 125 g/ha ([3]; 125 g/ha): 80%; plant injury at 125 g/ha ([4]; 125 g/ha): 0%; plant injury at 125 g/ha ([5]; 125 g/ha): 10%; pest or weed control at 30 g/ha (Setaria faberi (SETFA) [13]): 80%; pest or weed control at 125 g/ha (Setaria faberi (SETFA) [13]): 100%; pest or weed control at 30 g/ha [14]: 80%; pest or weed control at 125 g/ha [14]: 100% |
| CC#Cc1cc(Cl)c(C2C(=O)C3CCC(C3)C2=O)c(OCC)c1 (centres unmarked) [Compound A-16] | 100 | 100 | 0 | 0 | 10 | 50 | 10 | 60 | 0 | 30 | 20 | 80 | 0 | 60 | 20 | 70 | 80 | 100 | 80 | 100 | plant injury at 250 g/ha ([2]; 250 g/ha): 0%; plant injury at 250 g/ha ([3]; 250 g/ha): 0%; plant injury at 250 g/ha ([4]; 250 g/ha): 0%; plant injury at 250 g/ha ([5]; 250 g/ha): 20%; pest or weed control at 30 g/ha (Setaria faberi (SETFA) [13]): 80%; pest or weed control at 125 g/ha (Setaria faberi (SETFA) [13]): 100%; pest or weed control at 30 g/ha [14]: 80%; pest or weed control at 125 g/ha [14]: 100% |
